This note sets out measurements from patent publication US12084472B2 (Ardelyx, Inc., priority 2015, dated 2024).

Where only a bound is given, the exact number is not on record here.

The target of the test is T1, human TGR5 (Homo sapiens, UniProt Q8TDU6).
T1 construct: expressed in transfected cells; host or cells: HEK293
T1 sequence (Q8TDU6 1-330): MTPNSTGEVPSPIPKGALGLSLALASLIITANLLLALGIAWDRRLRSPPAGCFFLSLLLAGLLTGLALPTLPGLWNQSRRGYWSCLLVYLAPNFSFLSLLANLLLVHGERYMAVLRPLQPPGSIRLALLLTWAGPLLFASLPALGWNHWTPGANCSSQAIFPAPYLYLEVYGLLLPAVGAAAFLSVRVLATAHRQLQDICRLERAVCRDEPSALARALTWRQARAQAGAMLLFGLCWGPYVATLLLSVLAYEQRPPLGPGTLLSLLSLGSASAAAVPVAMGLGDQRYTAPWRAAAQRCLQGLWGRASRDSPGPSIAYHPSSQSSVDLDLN
In words: Cell-based TGR5 assay (cAMP generation, HTRF). To be noted: HEK293 cells stably transfected with human TGR5; cAMP by HTRF; 30 minutes at 37° C.; read-out: pEC50 Human TGR5 (converted). In outline: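 First, compounds in 3-fold serial dilution were placed in HBSS with 10 mM HEPES pH 7.4 and 0.5 mM IBMX. Next, human TGR5-expressing HEK293 cells were added and incubated 30 min at 37° C. Finally, cAMP was detected by HTRF and pEC50 derived by logistic fitting.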
In general terms: Time-resolved FRET reads energy transfer from a long-lived donor to a nearby acceptor.
With `O=C(O)CCNC(=O)N(CCCCc1cc(Cl)c(COC2(c3cnccc3-c3ccccc3OC3CC3)CC2)cc1Cl)C[C@H](O)[C@@H](O)[C@H](O)[C@H](O)CO` [Compound I-198, 3-[({4-[2,5-dichloro-4-({1-[4-(2-cyclopropoxyphenyl)pyridin-3-yl]cyclopropoxy}methyl)phenyl]butyl}[(2S,3R,4R,5R)-2,3,4,5,6-pentahydroxyhexyl]carbamoyl)amino]propanoic acid], the EC50 is less than 100 nM. Consider `O=C(O)CCCNC(=O)N(CCCCc1cc(Cl)c(COC2(c3cnccc3-c3ccccc3OC3CC3)CC2)cc1Cl)C[C@H](O)[C@@H](O)[C@H](O)[C@H](O)CO` [Compound I-199, 4-[({4-[2,5-dichloro-4-({1-[4-(2-cyclopropoxyphenyl)pyridin-3-yl]cyclopropoxy}methyl)phenyl]butyl}[(2S,3R,4R,5R)-2,3,4,5,6-pentahydroxyhexyl]carbamoyl)amino]butanoic acid], for which the EC50 is 126 to 1000 nM. The result for `CN(CC(=O)O)CC(=O)N(CCCCc1cc(Cl)c(CNC2(c3cnccc3-c3ccccc3OC3CC3)CC2)cc1Cl)C[C@H](O)[C@@H](O)[C@H](O)[C@H](O)CO` [Compound I-200, 2-({[(4-{2,5-dichloro-4-[({1-[4-(2-cyclopropoxyphenyl)pyridin-3-yl]cyclopropyl}amino)methyl]phenyl}butyl)[(2S,3R,4R,5R)-2,3,4,5,6-pentahydroxyhexyl]carbamoyl]methyl}(methyl)amino) acetic acid] reads 1260 to 10000 nM.

Regarding `CC(C)(CC(=O)O)CC(=O)N(CCCCc1cc(Cl)c(CNC2(c3cnccc3-c3ccccc3OC3CC3)CC2)cc1Cl)C[C@H](O)[C@@H](O)[C@H](O)[C@H](O)CO` [Compound I-201, 4-[(4-{2,5-dichloro-4-[({1-[4-(2-cyclopropoxyphenyl)pyridin-3-yl]cyclopropyl}amino)methyl]phenyl}butyl)[(2S,3R,4R,5R)-2,3,4,5,6-pentahydroxyhexyl]carbamoyl]-3,3-dimethylbutanoic acid], the EC50 was 1260 to 10000 nM.

For `CS(=O)(=O)CC(=O)N(CCCCc1cc(Cl)c(COC2(c3cnccc3-c3ccccc3OC3CC3)CC2)cc1Cl)C[C@H](O)[C@@H](O)[C@H](O)[C@H](O)CO` [Compound I-202, N-{4-[2,5-dichloro-4-({1-[4-(2-cyclopropoxyphenyl)pyridin-3-yl]cyclopropoxy}methyl)phenyl]butyl}-2-methanesulfonyl-N-[(2S,3R,4R,5R)-2,3,4,5,6-pentahydroxyhexyl]acetamide], the EC50 is less than 100 nM. For the compound `CN(C)CC(=O)N(CCCCc1cc(Cl)c(COC2(c3cnccc3-c3ccccc3OC3CC3)CC2)cc1Cl)C[C@H](O)[C@@H](O)[C@H](O)[C@H](O)CO` [Compound I-203, N-{4-[2,5-dichloro-4-({1-[4-(2-cyclopropoxyphenyl)pyridin-3-yl]cyclopropoxy}methyl)phenyl]butyl}-2-(dimethylamino)-N-[(2S,3R,4R,5R)-2,3,4,5,6-pentahydroxyhexyl]acetamide], the EC50 is less than 100 nM. As to `CCCN(CCCCc1cc(Cl)c(COC2(c3cnccc3-c3ccccc3OC3CC3)CC2)cc1Cl)C(=O)[C@@H](O)[C@@H](O)[C@H](O)[C@@H](O)CO` [Compound I-205, (2S,3S,4R,5S)-N-{4-[2,5-dichloro-4-({1-[4-(2-cyclopropoxyphenyl)pyridin-3-yl]cyclopropoxy}methyl)phenyl]butyl}-2,3,4,5,6-pentahydroxy-N-propylhexanamide], the EC50 is less than 100 nM. On to `COCCN(CCCCc1cc(Cl)c(COC2(c3cnccc3-c3ccccc3OC3CC3)CC2)cc1Cl)C(=O)[C@@H](O)[C@@H](O)[C@H](O)[C@@H](O)CO` [Compound I-206, (2S,3S,4R,5S)-N-{4-[2,5-dichloro-4-({1-[4-(2-cyclopropoxyphenyl)pyridin-3-yl]cyclopropoxy}methyl)phenyl]butyl}-2,3,4,5,6-pentahydroxy-N-(2-methoxyethyl)hexanamide], for which the EC50 is less than 100 nM.

For the compound `CN(C)CCN(C[C@H](O)[C@@H](O)[C@H](O)[C@H](O)CO)C(=O)CCCCc1cc(Cl)c(COC2(c3cnccc3-c3ccccc3OC3CC3)CC2)cc1Cl` [Compound I-207, 5-[2,5-dichloro-4-({1-[4-(2-cyclopropoxyphenyl)pyridin-3-yl]cyclopropoxy}methyl)phenyl)-N-[2-(dimethylamino)ethyl]-N-[(2S,3R,4R,5R)-2,3,4,5,6-pentahydroxyhexyl]pentanamide], the EC50 is 126 to 1000 nM. The result for `O=C([C@@H](O)[C@@H](O)[C@H](O)[C@@H](O)CO)N(CCCCc1cc(Cl)c(COC2(c3cnccc3-c3ccccc3OC3CC3)CC2)cc1Cl)CC1CC1` [Compound I-211, (2S,3S,4R,5S)-N-(cyclopropylmethyl)-N-{4-[2,5-dichloro-4-({1-[4-(2-cyclopropoxyphenyl)pyridin-3-yl]cyclopropoxy}methyl)phenyl]butyl}-2,3,4,5,6-pentahydroxyhexanamide] reads less than 100 nM; that for `COCCCN(CCCCc1cc(Cl)c(COC2(c3cnccc3-c3ccccc3OC3CC3)CC2)cc1Cl)C(=O)[C@@H](O)[C@@H](O)[C@H](O)[C@@H](O)CO` [Compound I-212, (2S,3S,4R,5S)-N-{4-[2,5-dichloro-4-({1-[4-(2-cyclopropoxyphenyl)pyridin-3-yl]cyclopropoxy}methyl)phenyl]butyl}-2,3,4,5,6-pentahydroxy-N-(3-methoxypropyl)hexanamide], less than 100 nM. Turning to `O=C([C@@H](O)[C@@H](O)[C@H](O)[C@@H](O)CO)N(CCO)CCCCc1cc(Cl)c(COC2(c3cnccc3-c3ccccc3OC3CC3)CC2)cc1Cl` [Compound I-213, (2S,3S,4R,5S)-N-{4-[2,5-dichloro-4-({1-[4-(2-cyclopropoxyphenyl)pyridin-3-yl]cyclopropoxy}methyl)phenyl]butyl}-2,3,4,5,6-pentahydroxy-N-(2-hydroxyethyl)hexanamide], the EC50 was less than 100 nM. The result for `C[C@@H](O)CN(CCCCc1cc(Cl)c(COC2(c3cnccc3-c3ccccc3OC3CC3)CC2)cc1Cl)C(=O)[C@@H](O)[C@@H](O)[C@H](O)[C@@H](O)CO` [Compound I-214, (2S,3S,4R,5S)-N-{4-[2,5-dichloro-4-({1-[4-(2-cyclopropoxyphenyl)pyridin-3-yl]cyclopropoxy}methyl)phenyl]butyl}-2,3,4,5,6-pentahydroxy-N-[(2R)-2-hydroxypropyl]hexanamide] reads less than 100 nM; that for `C[C@H](O)CN(CCCCc1cc(Cl)c(COC2(c3cnccc3-c3ccccc3OC3CC3)CC2)cc1Cl)C(=O)[C@@H](O)[C@@H](O)[C@H](O)[C@@H](O)CO` [Compound I-215, (2S,3S,4R,5S)-N-{4-[2,5-dichloro-4-({1-[4-(2-cyclopropoxyphenyl)pyridin-3-yl]cyclopropoxy}methyl)phenyl]butyl}-2,3,4,5,6-pentahydroxy-N-[(2S)-2-hydroxypropyl]hexanamide], less than 100 nM. The result for `O=C([C@@H](O)[C@@H](O)[C@H](O)[C@@H](O)CO)N(CCCCc1cc(Cl)c(COC2(c3cnccc3-c3ccccc3OC3CC3)CC2)cc1Cl)C1CCOCC1` [Compound I-216, (2S,3S,4R,5S)-N-{4-[2,5-dichloro-4-({1-[4-(2-cyclopropoxyphenyl)pyridin-3-yl]cyclopropoxy}methyl)phenyl]butyl}-2,3,4,5,6-pentahydroxy-N-(oxan-4-yl)hexanamide] reads 126 to 1000 nM; that for `O=C([C@@H](O)[C@@H](O)[C@H](O)[C@@H](O)CO)N(CCCO)CCCCc1cc(Cl)c(COC2(c3cnccc3-c3ccccc3OC3CC3)CC2)cc1Cl` [Compound I-217, (2S,3S,4R,5S)-N-{4-[2,5-dichloro-4-({1-[4-(2-cyclopropoxyphenyl)pyridin-3-yl]cyclopropoxy}methyl)phenyl]butyl}-2,3,4,5,6-pentahydroxy-N-(3-hydroxypropyl)hexanamide], less than 100 nM. For the compound `O=C(CCCCc1cc(Cl)c(COC2(c3cnccc3-c3ccccc3OC3CC3)CC2)cc1Cl)N(CCCO)C[C@H](O)[C@@H](O)[C@H](O)[C@H](O)CO` [Compound I-218, 5-[2,5-dichloro-4-({1-[4-(2-cyclopropoxyphenyl)pyridin-3-yl]cyclopropoxy}methyl)phenyl]-N-(3-hydroxypropyl)-N-[(2S,3R,4R,5R)-2,3,4,5,6-pentahydroxyhexyl]pentanamide], the EC50 is less than 100 nM. For the compound `COCCCN(C[C@H](O)[C@@H](O)[C@H](O)[C@H](O)CO)C(=O)CCCCc1cc(Cl)c(COC2(c3cnccc3-c3ccccc3OC3CC3)CC2)cc1Cl` [Compound I-220, 5-[2,5-dichloro-4-({1-[4-(2-cyclopropoxyphenyl)pyridin-3-yl]cyclopropoxy}methyl)phenyl]-N-(3-methoxypropyl)-N-[(2S,3R,4R,5R)-2,3,4,5,6-pentahydroxyhexyl]pentanamide], the EC50 was 126 to 1000 nM.

For the compound `CN(C)C(=O)CN(C[C@H](O)[C@@H](O)[C@H](O)[C@H](O)CO)C(=O)CCCCc1cc(Cl)c(COC2(c3cnccc3-c3ccccc3OC3CC3)CC2)cc1Cl` [Compound I-221, 5-[2,5-dichloro-4-({1-[4-(2-cyclopropoxyphenyl)pyridin-3-yl]cyclopropoxy}methyl)phenyl]-N-[(dimethylcarbamoyl)methyl]-N-[(2S,3R,4R,5R)-2,3,4,5,6-pentahydroxyhexyl]pentanamide], the EC50 was less than 100 nM.
